Measured values as given in patent publication US6355799B1, “Substituted benzene compounds, process for their preparation, and herbicidal and defoliant compositions containing them” (ISK Americas Incorporated, priority 1997, dated 2002).

Legend:
Assay type in all cases: in vivo
[1] = system: redroot pigweed (Amaranthus retroflexus, AMARE); assay: Pre-emerge test, greenhouse herbicide activity screening; conditions: pre-emerge; for Pre-emerge Herbicidal Activity AMARE: phytotoxicity rating 0-100 at 14 days after application; for phytotoxicity rating AMARE: 14 days after application, rating scale 0-100
Procedure, shortened: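 Compounds in acetone were track-sprayed at 187 l/ha, 15–1000 g ai/ha, onto sandy loam pots. Pre-emerge seeds were sown one day before spraying, with surface watering afterwards. Post-emerge plants were at the 2–3 leaf stage and sprayed with 0.25% v/v non-ionic surfactant. Injury was rated 0–100 at 14 days.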

[2] = system: barnyardgrass (Echinochloa crus-galli, ECHCG); assay: as above; conditions: pre-emerge; for Pre-emerge Herbicidal Activity ECHCG: phytotoxicity rating 0-100 at 14 days after application; for phytotoxicity rating ECHCG: 14 days after application, rating scale 0-100
Procedure, shortened: (§1)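 Visual ratings on a 0-100 scale (0 no damage, 100 all plants dead) were taken at 14 days after treatment. Rates of 15-1000 g ai/ha in acetone, 187 l/ha, were sprayed onto soil one day after planting (pre-emerge) or onto 2-3 leaf plants with 0.25% v/v surfactant (post-emerge).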

[3] = system: green foxtail (Setaria viridis, SETVI); assay: as above; conditions: pre-emerge; for Pre-emerge Herbicidal Activity SETVI: phytotoxicity rating 0-100 at 14 days after application; for phytotoxicity rating SETVI: 14 days after application, rating scale 0-100
Procedure, shortened: as §1

[4] = system: ivyleaf morningglory (Ipomoea hederacea, IPOHE); assay: as above; conditions: pre-emerge; for phytotoxicity rating IPOHE: 14 days after application, rating scale 0-100
Procedure, shortened: as §1

[5] = system: johnsongrass (Sorghum halepense, SORHA); assay: as above; conditions: pre-emerge; for Pre-emerge Herbicidal Activity SORHA: phytotoxicity rating 0-100 at 14 days after application; for phytotoxicity rating SORHA: 14 days after application, rating scale 0-100
Procedure, shortened: as §1

[6] = system: lambsquarters (Chenopodium album, CHEAL); assay: as above; conditions: pre-emerge; for Pre-emerge Herbicidal Activity CHEAL: phytotoxicity rating 0-100 at 14 days after application; for phytotoxicity rating CHEAL: 14 days after application, rating scale 0-100
Procedure, shortened: as §1

[7] = system: large crabgrass (Digitaria sanguinalis, DIGSA); assay: as above; conditions: pre-emerge; for Pre-emerge Herbicidal Activity DIGSA: phytotoxicity rating 0-100 at 14 days after application; for phytotoxicity rating DIGSA: 14 days after application, rating scale 0-100
Procedure, shortened: as §1

[8] = system: sicklepod (Cassia obtusifolia, CASOB); assay: as above; conditions: pre-emerge; for Pre-emerge Herbicidal Activity CASOB: phytotoxicity rating 0-100 at 14 days after application; for phytotoxicity rating CASOB: 14 days after application, rating scale 0-100
Procedure, shortened: as §1

[9] = system: velvetleaf (Abutilon theophrasti, ABUTH); assay: as above; conditions: pre-emerge; for Pre-emerge Herbicidal Activity ABUTH: phytotoxicity rating 0-100 at 14 days after application; for phytotoxicity rating ABUTH: 14 days after application, rating scale 0-100
Procedure, shortened: as §1

[10] = system: field corn (Zea mays L., var. Dekalb 535, CORN); assay: Pre-emerge test, crop safety; conditions: pre-emerge; for Pre-emerge Herbicidal Activity CORN: crop damage, phytotoxicity rating 0-100 at 14 days after application; for phytotoxicity rating CORN: 14 days after application, rating scale 0-100
Procedure, shortened: (§2)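 Sandy loam pots; pre-emerge: sown 1 d pre-spray, surface-watered after, then bottom-watered. Post-emerge: sown 8–21 d before, 2–3 leaf stage, + 0.25% v/v NIS, bottom-watered. Acetone, 187 l/ha track spray, 15–1000 g ai/ha. 0–100 injury score, day 14.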

[11] = system: upland rice (Oryza sp., var. Tebonnet, RICE); assay: Pre-emerge test, crop safety; conditions: pre-emerge; for Pre-emerge Herbicidal Activity RICE: crop damage, phytotoxicity rating 0-100 at 14 days after application; for phytotoxicity rating RICE: 14 days after application, rating scale 0-100
Procedure, shortened: as §2

[12] = system: barnyardgrass (Echinochloa crus-galli, ECHCG); assay: Post-emerge test, greenhouse herbicide activity screening; conditions: 14 days after application; for phytotoxicity rating ECHCG: post-emerge, rating scale 0-100; for Post-emerge Herbicidal Activity, phytotoxicity rating ECHCG: rating scale 0-100 (0 no damage, 100 complete death)
Procedure, shortened: (§3)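 Applied at 15–1000 g ai/ha from acetone in 187 l/ha spray volume. Post-emergence applications included 0.25% v/v non-ionic surfactant and reached plants sown 8–21 days before. Pre-emergence applications were incorporated by surface watering. Efficacy or crop damage was rated on a 0–100 scale after 14 days.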

[13] = system: green foxtail (Setaria viridis, SETVI); assay: as above; conditions: 14 days after application; for phytotoxicity rating SETVI: post-emerge, rating scale 0-100; for Post-emerge Herbicidal Activity, phytotoxicity rating SETVI: rating scale 0-100 (0 no damage, 100 complete death)
Procedure, shortened: as §3

[14] = system: ivyleaf morningglory (Ipomoea hederacea, IPOHE); assay: as above; conditions: 14 days after application; for phytotoxicity rating IPOHE: post-emerge, rating scale 0-100; for Post-emerge Herbicidal Activity, phytotoxicity rating IPOHE: rating scale 0-100 (0 no damage, 100 complete death)
Procedure, shortened: as §3

[15] = system: johnsongrass (Sorghum halepense, SORHA); assay: as above; conditions: 14 days after application; for phytotoxicity rating SORHA: post-emerge, rating scale 0-100; for Post-emerge Herbicidal Activity, phytotoxicity rating SORHA: rating scale 0-100 (0 no damage, 100 complete death)
Procedure, shortened: as §3

[16] = system: lambsquarters (Chenopodium album, CHEAL); assay: as above; conditions: 14 days after application; for phytotoxicity rating CHEAL: post-emerge, rating scale 0-100; for Post-emerge Herbicidal Activity, phytotoxicity rating CHEAL: rating scale 0-100 (0 no damage, 100 complete death)
Procedure, shortened: as §3

[17] = system: large crabgrass (Digitaria sanguinalis, DIGSA); assay: as above; conditions: 14 days after application; for phytotoxicity rating DIGSA: post-emerge, rating scale 0-100; for Post-emerge Herbicidal Activity, phytotoxicity rating DIGSA: rating scale 0-100 (0 no damage, 100 complete death)
Procedure, shortened: as §3

[18] = system: redroot pigweed (Amaranthus retroflexus, AMARE); assay: as above; conditions: 14 days after application; for phytotoxicity rating AMARE: post-emerge
Procedure, shortened: as §3

[19] = system: sicklepod (Cassia obtusifolia, CASOB); assay: as above; conditions: 14 days after application; for phytotoxicity rating CASOB: post-emerge, rating scale 0-100; for Post-emerge Herbicidal Activity, phytotoxicity rating CASOB: rating scale 0-100 (0 no damage, 100 complete death)
Procedure, shortened: as §3

[20] = system: velvetleaf (Abutilon theophrasti, ABUTH); assay: as above; conditions: 14 days after application; for phytotoxicity rating ABUTH: post-emerge, rating scale 0-100; for Post-emerge Herbicidal Activity, phytotoxicity rating ABUTH: rating scale 0-100 (0 no damage, 100 complete death)
Procedure, shortened: as §3

[21] = system: field corn (Zea mays L., var. Dekalb 535, CORN); assay: Post-emerge test, crop safety; conditions: 14 days after application; for phytotoxicity rating CORN (crop damage): post-emerge, rating scale 0-100; for Post-emerge phytotoxicity rating CORN (crop damage): rating scale 0-100 (0 no damage, 100 complete death)
Procedure, shortened: as §1

[22] = system: upland rice (Oryza sp., var. Tebonnet, RICE); assay: Post-emerge test, crop safety; conditions: 14 days after application; for phytotoxicity rating RICE (crop damage): post-emerge, rating scale 0-100; for Post-emerge phytotoxicity rating RICE (crop damage): rating scale 0-100 (0 no damage, 100 complete death)
Procedure, shortened: as §1

Cc1c(Cl)cc(F)c(-n2c(=O)cc(C(F)(F)F)n(C)c2=O)c1NC(=O)OCCc1ccccc1 [4-57]
75: Pre-emerge Herbicidal Activity ECHCG ([2]; rate 250 g ai/ha)
45: Pre-emerge Herbicidal Activity CORN ([10]; rate 250 g ai/ha)
95: Pre-emerge Herbicidal Activity AMARE ([1]; rate 63 g ai/ha) | Pre-emerge Herbicidal Activity DIGSA ([7]; rate 250 g ai/ha) | phytotoxicity rating CHEAL ([16]; 63 g ai/ha)
100: Pre-emerge Herbicidal Activity AMARE ([1]; rate 250 g ai/ha) | Pre-emerge Herbicidal Activity SETVI ([3]; rate 250 g ai/ha) | Pre-emerge Herbicidal Activity CHEAL ([6]; rate 63 g ai/ha) | Pre-emerge Herbicidal Activity CHEAL ([6]; rate 250 g ai/ha) | Pre-emerge Herbicidal Activity CASOB ([8]; rate 250 g ai/ha) | Pre-emerge Herbicidal Activity ABUTH ([9]; rate 63 g ai/ha) | Pre-emerge Herbicidal Activity ABUTH ([9]; rate 250 g ai/ha) | phytotoxicity rating IPOHE ([14]; 63 g ai/ha) | phytotoxicity rating IPOHE ([14]; 250 g ai/ha) | phytotoxicity rating CHEAL ([16]; 250 g ai/ha) | phytotoxicity rating AMARE ([18]; 63 g ai/ha, rating scale 0-100 (0 no damage, 100 complete death)) | phytotoxicity rating AMARE ([18]; 250 g ai/ha, rating scale 0-100) | phytotoxicity rating CASOB ([19]; 250 g ai/ha) | phytotoxicity rating ABUTH ([20]; 63 g ai/ha) | phytotoxicity rating ABUTH ([20]; 250 g ai/ha)
20: Pre-emerge Herbicidal Activity ECHCG ([2]; rate 63 g ai/ha) | Pre-emerge Herbicidal Activity RICE ([11]; rate 63 g ai/ha)
50: Pre-emerge Herbicidal Activity IPOHE ([4]; rate 63 g ai/ha, phytotoxicity rating 0-100 at 14 days after application) | phytotoxicity rating SETVI ([13]; 63 g ai/ha) | phytotoxicity rating SORHA ([15]; 250 g ai/ha) | phytotoxicity rating RICE (crop damage) ([22]; 63 g ai/ha)
80: Pre-emerge Herbicidal Activity SETVI ([3]; rate 63 g ai/ha) | phytotoxicity rating RICE (crop damage) ([22]; 250 g ai/ha)
10: Pre-emerge Herbicidal Activity SORHA ([5]; rate 63 g ai/ha) | Pre-emerge Herbicidal Activity CASOB ([8]; rate 63 g ai/ha) | phytotoxicity rating DIGSA ([17]; 63 g ai/ha)
0: Pre-emerge Herbicidal Activity CORN ([10]; rate 63 g ai/ha)
90: phytotoxicity rating SETVI ([13]; 250 g ai/ha) | phytotoxicity rating CORN (crop damage) ([21]; 250 g ai/ha)
70: Pre-emerge Herbicidal Activity SORHA ([5]; rate 250 g ai/ha) | Pre-emerge Herbicidal Activity RICE ([11]; rate 250 g ai/ha)
60: Pre-emerge Herbicidal Activity DIGSA ([7]; rate 63 g ai/ha) | phytotoxicity rating DIGSA ([17]; 250 g ai/ha) | phytotoxicity rating CASOB ([19]; 63 g ai/ha)
30: phytotoxicity rating ECHCG ([12]; 63 g ai/ha) | phytotoxicity rating SORHA ([15]; 63 g ai/ha)
40: phytotoxicity rating ECHCG ([12]; 250 g ai/ha) | phytotoxicity rating CORN (crop damage) ([21]; 63 g ai/ha)

CCOC(=O)C(Cl)(CC(=O)OC)Cc1c(OC)c(Cl)cc(F)c1-n1c(=O)cc(C(F)(F)F)n(C)c1=O (stereo not drawn) [14-50]
100: phytotoxicity rating AMARE ([1]; 63 g ai/ha) | phytotoxicity rating AMARE ([1]; 250 g ai/ha) | phytotoxicity rating CHEAL ([6]; 63 g ai/ha) | phytotoxicity rating CHEAL ([6]; 250 g ai/ha) | Post-emerge Herbicidal Activity, phytotoxicity rating CHEAL ([16]; Rate 250 g ai/ha) | Post-emerge Herbicidal Activity, phytotoxicity rating AMARE ([18]; Rate 63 g ai/ha, rating scale 0-100 (0 no damage, 100 complete death)) | Post-emerge Herbicidal Activity, phytotoxicity rating AMARE ([18]; Rate 250 g ai/ha, rating scale 0-100 (0 no damage, 100 complete death)) | Post-emerge Herbicidal Activity, phytotoxicity rating CASOB ([19]; Rate 250 g ai/ha)
0: phytotoxicity rating ECHCG ([2]; 63 g ai/ha) | phytotoxicity rating SETVI ([3]; 63 g ai/ha) | phytotoxicity rating DIGSA ([7]; 63 g ai/ha) | phytotoxicity rating CASOB ([8]; 63 g ai/ha) | phytotoxicity rating ABUTH ([9]; 63 g ai/ha) | phytotoxicity rating RICE ([11]; 63 g ai/ha) | phytotoxicity rating RICE ([11]; 250 g ai/ha) | Post-emerge Herbicidal Activity, phytotoxicity rating ECHCG ([12]; Rate 63 g ai/ha) | Post-emerge Herbicidal Activity, phytotoxicity rating ECHCG ([12]; Rate 250 g ai/ha) | Post-emerge Herbicidal Activity, phytotoxicity rating SETVI ([13]; Rate 63 g ai/ha) | Post-emerge Herbicidal Activity, phytotoxicity rating SETVI ([13]; Rate 250 g ai/ha) | Post-emerge Herbicidal Activity, phytotoxicity rating IPOHE ([14]; Rate 63 g ai/ha) | Post-emerge Herbicidal Activity, phytotoxicity rating IPOHE ([14]; Rate 250 g ai/ha) | Post-emerge Herbicidal Activity, phytotoxicity rating SORHA ([15]; Rate 63 g ai/ha) | Post-emerge Herbicidal Activity, phytotoxicity rating SORHA ([15]; Rate 250 g ai/ha) | Post-emerge Herbicidal Activity, phytotoxicity rating DIGSA ([17]; Rate 63 g ai/ha)
40: phytotoxicity rating DIGSA ([7]; 250 g ai/ha)
95: phytotoxicity rating SORHA ([5]; 250 g ai/ha)
70: phytotoxicity rating IPOHE ([4]; 250 g ai/ha)
30: phytotoxicity rating ECHCG ([2]; 250 g ai/ha) | phytotoxicity rating CASOB ([8]; 250 g ai/ha) | Post-emerge Herbicidal Activity, phytotoxicity rating ABUTH ([20]; Rate 63 g ai/ha) | Post-emerge phytotoxicity rating CORN (crop damage) ([21]; Rate 250 g ai/ha) | Post-emerge phytotoxicity rating RICE (crop damage) ([22]; Rate 63 g ai/ha)
10: phytotoxicity rating IPOHE ([4]; 63 g ai/ha) | phytotoxicity rating CORN ([10]; 63 g ai/ha) | Post-emerge phytotoxicity rating CORN (crop damage) ([21]; Rate 63 g ai/ha)
90: phytotoxicity rating CORN ([10]; 250 g ai/ha) | Post-emerge Herbicidal Activity, phytotoxicity rating CASOB ([19]; Rate 63 g ai/ha)
50: phytotoxicity rating SETVI ([3]; 250 g ai/ha) | phytotoxicity rating SORHA ([5]; 63 g ai/ha) | phytotoxicity rating ABUTH ([9]; 250 g ai/ha) | Post-emerge Herbicidal Activity, phytotoxicity rating CHEAL ([16]; Rate 63 g ai/ha) | Post-emerge Herbicidal Activity, phytotoxicity rating DIGSA ([17]; Rate 250 g ai/ha) | Post-emerge Herbicidal Activity, phytotoxicity rating ABUTH ([20]; Rate 250 g ai/ha) | Post-emerge phytotoxicity rating RICE (crop damage) ([22]; Rate 250 g ai/ha)
